Reference: PubChem BioAssay AID250 (DTP/NCI, 2004)
Where “and” joins values, the source holds several entries; their conditions need not be identical. Equal entries are not always repeated. Inconclusive results and toxic doses are left out. How the source made its calls: active means survival T/C of 150% or more; inactive means T/C below 125% in these data.

Tested on: BDF1 mice, L1210 leukemia sc, survival T/C
Test: NCI In Vivo Anticancer Drug Screen. Data for tumor model L1210 Leukemia (subcutaneous) in B6D2F1 (BDF1) mice
Settings: endpoint: median survival time, higher = longer survival
Description: The antitumor activity of compounds was measured in mice bearing transplantable tumors. Survival or tumor size were measured and the results are expressed as the measurement made in the treated group (T) divided by the measurement made in the vehicle treated control group (C). The tumor model used in this assay is L1210 Leukemia (subcutaneous) in B6D2F1 (BDF1) mice

[1] = dose: 14.0 mg/kg/injection, schedule: Q01DX Z (sc), vehicle: water
[2] = dose: 23.0 mg/kg/injection, schedule: Q01DX Z (sc), vehicle: water
[3] = dose: 39.0 mg/kg/injection, schedule: Q01DX Z (sc), vehicle: water
[4] = dose: 65.0 mg/kg/injection, schedule: Q01DX Z (sc), vehicle: water

Measured: T/C

COc1cccc2c1C(=O)c1c(O)c3c(c(O)c1C2=O)C[C@@](O)(C(C)=O)C[C@@H]3OC1CC(N)C(O)C(C)O1 (stereo not given in full)
active: dose: 8.4 mg/kg/injection, schedule: Q01DX Z (sc), vehicle: saline 150 % of control
inactive: dose: 1.0 mg/kg/injection, schedule: Q04DX003 (ip), vehicle: saline 88 % of control | dose: 2.0 mg/kg/injection, schedule: Q04DX003 (ip), vehicle: saline 90 % of control | dose: 3.0 mg/kg/injection, schedule: Q01DX Z (sc), vehicle: saline 95 % of control and 100 % of control | dose: 3.1 mg/kg/injection, schedule: Q01DX Z (sc), vehicle: saline 95 % of control | dose: 4.0 mg/kg/injection, schedule: Q04DX003 (ip), vehicle: saline 89 % of control | dose: 5.0 mg/kg/injection, schedule: Q01DX Z (sc), vehicle: saline 100 % of control and 115 % of control | dose: 5.0 mg/kg/injection, schedule: Q01DX Z (sc), vehicle: water 104 % of control | dose: 5.2 mg/kg/injection, schedule: Q01DX Z (sc), vehicle: saline 100 % of control | dose: 6.5 mg/kg/injection, schedule: Q04DX003 (sc), vehicle: water 105 % of control and 111 % of control | dose: 10.8 mg/kg/injection, schedule: Q04DX003 (sc), vehicle: water 109 % of control and 111 % of control | dose: 14.0 mg/kg/injection, schedule: Q01DX Z (sc), vehicle: saline 120 % of control | [1] 123 % of control | dose: 23.0 mg/kg/injection, schedule: Q01DX Z (sc), vehicle: saline 110 % of control and 120 % of control | [2] 109 % of control | dose: 24.0 mg/kg/injection, schedule: Q01DX Z (sc), vehicle: saline 120 % of control | dose: 30.0 mg/kg/injection, schedule: Q04DX003 (sc), vehicle: water 99 % of control and 100 % of control | dose: 39.0 mg/kg/injection, schedule: Q01DX Z (sc), vehicle: saline 110 % of control | [3] 104 % of control | dose: 40.0 mg/kg/injection, schedule: Q01DX Z (sc), vehicle: saline 110 % of control | [4] 95 % of control

CSc1ncnc2c1ncn2C1OC(CO)C(O)C1O (stereo not given)
inactive: dose: 5.0 mg/kg/injection, schedule: Q#A X Z (sc), vehicle: water 100 % of control | dose: 8.4 mg/kg/injection, schedule: Q#A X Z (sc), vehicle: water 100 % of control | [1] 100 % of control | dose: 14.0 mg/kg/injection, schedule: Q#A X Z (sc), vehicle: water 105 % of control | [2] 100 % of control and 105 % of control | dose: 23.0 mg/kg/injection, schedule: Q02DX Z (sc), vehicle: water 100 % of control | dose: 23.0 mg/kg/injection, schedule: Q#A X Z (sc), vehicle: water 111 % of control | [3] 111 % of control | dose: 39.0 mg/kg/injection, schedule: Q02DX Z (sc), vehicle: water 105 % of control | dose: 39.0 mg/kg/injection, schedule: Q## X Z (sc), vehicle: water 111 % of control | dose: 39.0 mg/kg/injection, schedule: Q#A X Z (sc), vehicle: water 111 % of control | dose: 65.0 mg/kg/injection, schedule: Q01DX001 (sc), vehicle: water 100 % of control | [4] 111 % of control | dose: 65.0 mg/kg/injection, schedule: Q02DX Z (sc), vehicle: water 100 % of control | dose: 65.0 mg/kg/injection, schedule: Q## X Z (sc), vehicle: water 105 % of control | dose: 108.0 mg/kg/injection, schedule: Q01DX001 (sc), vehicle: water 111 % of control | dose: 108.0 mg/kg/injection, schedule: Q01DX Z (sc), vehicle: water 122 % of control | dose: 108.0 mg/kg/injection, schedule: Q02DX Z (sc), vehicle: water 111 % of control | dose: 108.0 mg/kg/injection, schedule: Q## X Z (sc), vehicle: water 111 % of control | dose: 180.0 mg/kg/injection, schedule: Q01DX001 (sc), vehicle: water 122 % of control | dose: 180.0 mg/kg/injection, schedule: Q02DX Z (sc), vehicle: water 105 % of control | dose: 180.0 mg/kg/injection, schedule: Q## X Z (sc), vehicle: water 116 % of control | dose: 300.0 mg/kg/injection, schedule: Q01DX001 (sc), vehicle: water 122 % of control | dose: 300.0 mg/kg/injection, schedule: Q## X Z (sc), vehicle: water 122 % of control
